Where only a bound is given, the exact number is not on record here.

Take `COc1cccc(NS(=O)(=O)c2ccc(N3CCNC3=O)cc2)c1`: the melting point – broadly, the temperature, or range, at which the solid turns liquid – fell in the range of 179 to 181 °C.
As to `Fc1ccc(-c2cc(C(F)(F)F)n3cnc(-c4cccnc4)c3n2)cc1Cl`, the melting point is 188 °C.
In turn, `CCOC(=O)c1cnc2ccc(-c3ccc(C(F)(F)F)cc3)cn12` gave a melting point of 118 °C.
For the compound `COc1ccc(CCN(C)CCc2ccc(NC(=O)c3cccc4c(=O)c5ccccc5[nH]c34)cc2)cc1OC`, the melting point worked out at 180 °C.
The same measure for `O=C(OCC12CCCN(CCC1)C2)c1c[nH]c2ccccc12`: 207 to 209 °C; for `CNC(=O)[C@@H](N)Cc1ccc(OC)cc1`: 90 to 91 °C.
`CCCNCc1cc2ccc(NC(=O)c3ccc(OC[C@@H]4CCCO4)cc3)c(C)c2[nH]1` registered a melting point of 117 to 119 °C.
Compound `CCCCCCCCCCCCCC(C)S(=O)(=O)NC(=O)Nc1c(C(C)C)cccc1C(C)C` (centres undefined) gave a melting point of 65 to 75 °C.
With `CC(=O)NC[C@H]1CN(c2ccc(C(=O)c3cnc4c(Cl)cc(Cl)cn34)cc2)C(=O)O1`, the melting point fell in the range of 228 to 229 °C.
Then `CN1C(=O)N(c2ccc(Cl)cc2)S(=O)(=O)c2ccc(OCC3CCCCC3)cc21`, with 127 to 129 °C.
Regarding `O=C1CCCC(c2ccc(Cl)cc2)N1c1ccc(O)cc1` (centres undefined), the melting point fell in the range of 209 to 210 °C.
The compound `O=C(C1(F)CC1Cc1ccc(Cl)cc1)C1(F)CC1Cc1ccc(Cl)cc1` (centres undefined) showed a melting point of 53 to 54 °C.
`CC(C)(O)Cn1c(CONS(C)(=O)=O)nc2c(N)nc3ccccc3c21` came in with a melting point of 232 to 234 °C.
`Clc1ccc(C=Cc2nc[nH]n2)cc1` came in with a melting point of 178 to 182 °C.
Turning to `CCNc1c(OC)cc(C(O)CS(C)(=O)=O)cc1OC` (centres undefined), the melting point is 121 to 122 °C.
As to `CC(C)(C)[C@H](COC(=O)OCc1ccccc1)NC(=O)[C@@H](CC(=O)OCc1ccccc1)n1ccc(-c2ccc(-c3ccncc3)cc2)c1`, the melting point lay within 74 to 76 °C.
For the compound `CCCCS(=O)(=O)Nc1cccc(COc2cccc3cccnc23)c1`, the melting point was 136 to 137 °C.
In the case of `CC(C)c1cc(C(=O)Nc2ccc(C(=O)O)nc2)sc1C(C)C`, the melting point was 216 to 217 °C.
For the compound `COc1nnc(N)c(=O)n1C`, the melting point was in the range of 198 to 199 °C.
`Cn1c(C(F)(F)F)cc(=O)n(-c2cc([N+](=O)[O-])c(Br)cc2F)c1=O` showed a melting point of 124 to 125 °C.
`Cc1ccnc(SCc2nccc(SCCCSc3ccc4ncc([N+](=O)[O-])n4n3)c2C)n1`: the melting point is 136 to 138 °C.
For `CO/C=C(/C(=O)OC)c1ccccc1CCl`, the melting point was 85 to 88 °C.
Turning to `Nc1c(-c2cc(Cl)ccc2O)c2cc(Cl)c(Cl)cc2[nH]c1=O`, the melting point lay in the range of 305 to 307 °C.
The same measure for `CC(C)C(c1cncnc1C(F)(F)F)N(C)C(=O)Cc1ccccn1` (centres undefined): 99 to 100 °C; for `CSC1=C(c2ccc(O)cc2)C(=O)c2cc(O)ccc21`: 90 to 92 °C.
As to `CCCCCCCCCCCCCCCCN1C(=O)C2=C(c3cccs3)N(CCCCCCCCCCCCCCCC)C(=O)C2=C1c1cccs1`, the melting point is 124 to 125 °C.
For `Cn1ncc2c1CS(=O)(=O)c1cn[nH]c1-2`, the melting point was above 270 °C.
`O=C(O)c1ccc(CSc2nnc(S)s2)cc1` showed a melting point of 230 to 232 °C.
The compound `CCOC(=O)c1c(S(N)=O)c2cc(C)ccc2n1C` (centres undefined) yielded a melting point of 118 °C.
For the compound `CCOC(=O)c1cnn(-c2ccccc2)c1NC(=O)Nc1ccccc1`, the melting point was 184 to 185 °C.
Compound `COCCOc1cc2c(Nc3ccc(Sc4nccn4C)c(Cl)c3)c(C#N)cnc2cc1F` yielded a melting point of 265 to 270 °C.
In the case of `CCOC12CCC(=O)C3(C)Oc4c(OC)ccc5c4C31CCN(CCc1ccccc1)C2C5` (centres undefined), the melting point fell in the range of 86 to 89 °C.
`CC(C)CCNc1c([N+](=O)[O-])cnc2ccccc12` returned a melting point of 99 to 100 °C.
As to `CCOC(=O)C(CCC(C)(C)c1cc(O)c(C(C)(C)CCC(C(=O)OCC)C(=O)OCC)cc1O)C(=O)OCC`, the melting point fell in the range of 157 to 160 °C.

(Values after a melting point compilation (Tetko et al.; mined from patent text by program, amines drawn as free bases though some values may be those of a salt).)
